Our source for the EC50 values is ChEMBL document CHEMBL1148899, “Activity of macrocyclic jatrophane diterpenes from Euphorbia kansui in a TrkA fibroblast survival assay” (2004).

Converted amounts (≈) assume the structure as drawn.

Test [1] concerns NIH3T3. Description: Survival effect on NGF-dependent mouse NIH/3T3 cells expressing TrkA assessed as cell viability after 2 days by MTT assay. To be noted: NIH3T3, 48 h, read-out: ED50 (the source's name). The format is functional.
The test system of test [2] is NIH3T3. Briefly: Survival effect on NGF-dependent mouse NIH/3T3 cells expressing TrkB assessed as cell viability after 2 days by MTT assay. The format is functional. To be noted: NIH3T3, 48 h, read-out: ED50 (the source's name).

With `C=C1[C@H](OC(C)=O)[C@@H](OC(=O)c2ccccc2)[C@@H](OC(C)=O)C(C)(C)[C@H]2O[C@](O)([C@H](C)C2=O)[C@@]2(OC(C)=O)C[C@H](C)[C@H](OC(C)=O)[C@@H]2[C@H]1OC(C)=O` [KANSUININ A], the results for the EC50 in the test on NIH3T3 [1] and in the test with NIH3T3 [2] were 7.92 µg/mL (≈ 10.8 µM) and 3.28 µg/mL (≈ 4.49 µM), respectively.
For `C=C1[C@H](OC(C)=O)[C@@H](OC(=O)c2ccccc2)[C@@H](OC(=O)c2cccnc2)C(C)(C)[C@H]2O[C@](O)([C@H](C)C2=O)[C@@]2(OC(C)=O)C[C@H](C)[C@H](OC(C)=O)[C@@H]2[C@H]1OC(C)=O` [KANSUININ D] the same measures were 0.55 µg/mL (≈ 0.693 µM) and 0.22 µg/mL (≈ 0.277 µM).
For `C=C1[C@H](OC(C)=O)[C@@H](OC(=O)c2ccccc2)[C@@H](OC(=O)c2cccnc2)C(C)(C)[C@H]2O[C@@H]2[C@@H](C)C(=O)[C@@]2(OC(C)=O)C[C@H](C)[C@H](OC(C)=O)[C@@H]2[C@H]1OC(C)=O` [KANSUININ E] the same measures were 0.23 µg/mL (≈ 0.296 µM) and greater than 50 µg/mL.
For `C=C1[C@H](OC(C)=O)[C@@H](OC(=O)c2ccccc2)[C@@H](OC(=O)c2ccccc2)C(C)(C)[C@H]2O[C@@H]2[C@@H](C)C(=O)[C@@]2(OC(C)=O)C[C@H](C)[C@H](OC(C)=O)[C@@H]2[C@H]1OC(C)=O` [KANSUININ F] the same measures were greater than 50 µg/mL and greater than 50 µg/mL.
